Molecular target: T1, Amiloride-sensitive sodium channels (ENaC) (Sus scrofa, UniProt A0A480QJ99+F1RPF1+I3LGX7)
T1 construct: placed inside the trachea in contact with the tracheal epithelium; from tissue; host or cells: ex vivo pig trachea (tracheal epithelium)
T1 sequence (A0A480QJ99 1-650): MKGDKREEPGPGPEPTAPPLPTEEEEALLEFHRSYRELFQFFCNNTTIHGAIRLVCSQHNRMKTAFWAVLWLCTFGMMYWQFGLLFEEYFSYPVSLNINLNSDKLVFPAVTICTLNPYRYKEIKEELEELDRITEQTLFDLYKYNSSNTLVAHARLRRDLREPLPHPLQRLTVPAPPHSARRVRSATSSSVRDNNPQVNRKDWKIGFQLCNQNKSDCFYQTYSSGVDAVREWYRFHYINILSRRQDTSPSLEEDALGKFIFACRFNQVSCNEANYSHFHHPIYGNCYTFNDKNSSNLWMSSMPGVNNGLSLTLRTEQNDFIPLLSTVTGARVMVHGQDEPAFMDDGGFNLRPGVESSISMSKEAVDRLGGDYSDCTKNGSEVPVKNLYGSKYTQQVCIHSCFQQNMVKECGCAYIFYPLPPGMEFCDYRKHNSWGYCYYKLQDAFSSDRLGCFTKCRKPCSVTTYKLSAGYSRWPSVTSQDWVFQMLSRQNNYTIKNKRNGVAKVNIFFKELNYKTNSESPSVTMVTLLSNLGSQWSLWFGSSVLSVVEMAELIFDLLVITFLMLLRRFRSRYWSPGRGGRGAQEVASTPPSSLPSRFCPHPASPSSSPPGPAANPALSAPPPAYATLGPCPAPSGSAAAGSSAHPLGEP
T1 sequence (I3LGX7 1-644): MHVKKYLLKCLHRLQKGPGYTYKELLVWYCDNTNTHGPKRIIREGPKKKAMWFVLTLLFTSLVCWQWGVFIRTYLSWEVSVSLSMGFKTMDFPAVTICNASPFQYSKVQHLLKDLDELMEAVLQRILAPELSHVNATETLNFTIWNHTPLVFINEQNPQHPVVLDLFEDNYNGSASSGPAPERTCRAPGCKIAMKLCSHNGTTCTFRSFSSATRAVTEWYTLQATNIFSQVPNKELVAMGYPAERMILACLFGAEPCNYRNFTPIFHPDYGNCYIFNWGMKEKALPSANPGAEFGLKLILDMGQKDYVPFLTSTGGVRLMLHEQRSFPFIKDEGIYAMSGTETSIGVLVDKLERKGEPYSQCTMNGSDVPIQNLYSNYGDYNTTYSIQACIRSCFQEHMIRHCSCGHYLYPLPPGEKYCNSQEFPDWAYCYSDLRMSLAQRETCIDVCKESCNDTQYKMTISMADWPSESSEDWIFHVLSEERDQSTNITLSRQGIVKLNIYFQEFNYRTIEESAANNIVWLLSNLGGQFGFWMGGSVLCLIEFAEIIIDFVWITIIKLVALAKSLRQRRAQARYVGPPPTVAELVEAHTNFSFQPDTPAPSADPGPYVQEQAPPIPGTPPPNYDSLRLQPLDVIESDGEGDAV
T1 sequence (F1RPF1 1-652): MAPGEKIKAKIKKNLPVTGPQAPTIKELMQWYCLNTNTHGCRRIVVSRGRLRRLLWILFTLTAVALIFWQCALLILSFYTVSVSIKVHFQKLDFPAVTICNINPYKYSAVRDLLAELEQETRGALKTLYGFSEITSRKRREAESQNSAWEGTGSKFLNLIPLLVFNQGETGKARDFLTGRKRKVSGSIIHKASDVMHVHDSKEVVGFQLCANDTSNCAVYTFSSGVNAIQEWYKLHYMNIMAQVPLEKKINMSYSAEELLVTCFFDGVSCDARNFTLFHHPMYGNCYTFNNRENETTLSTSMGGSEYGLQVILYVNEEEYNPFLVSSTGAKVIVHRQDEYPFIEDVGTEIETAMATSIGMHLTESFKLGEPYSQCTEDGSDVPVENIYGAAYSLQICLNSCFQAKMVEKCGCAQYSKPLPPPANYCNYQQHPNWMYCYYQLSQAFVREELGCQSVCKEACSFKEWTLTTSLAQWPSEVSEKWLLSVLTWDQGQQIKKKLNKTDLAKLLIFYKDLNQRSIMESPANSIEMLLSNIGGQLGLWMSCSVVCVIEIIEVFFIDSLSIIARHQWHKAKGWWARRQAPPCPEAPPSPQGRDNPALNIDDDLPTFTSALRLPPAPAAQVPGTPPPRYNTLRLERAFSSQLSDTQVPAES
Assay: Amiloride-sensitive ENaC-dependent tracheal PD, ex vivo pig trachea
Conditions: for AUC of amiloride-sensitive ENaC-dependent tracheal PD responses, analysis of variance: AUC normalised to average of first four peaks, Rx 3.10^−5M alone; for AUC of amiloride-sensitive ENaC-dependent tracheal PD responses, analysis of variance / baseline tracheal PD during perfusion of the agent / responses to 5 min amiloride perfusion during perfusion of the agent: +50 mM-NaCl, combinations with 10^−5 M Rx; for AUC of amiloride-sensitive ENaC-dependent tracheal PD responses, analysis of variance / responses to 5 min amiloride perfusion during perfusion of the agent: 100 mosM-mannitol; for baseline tracheal PD during perfusion of the agent / responses to 5 min amiloride perfusion during perfusion of the agent: perfused in BSS: Rx 3.10^−5M alone, 50 mM sodium gluconate, 0.1 mM-UTP
Experimental: (§1) FIG. 1 A description of the equipment used to measure electrical potential difference (PD) across the pig trachea ex vivo (FIG. 1A). Pig tracheas placed on a sloping radiator heated at 37° C. A reference electrode consisting of silicone tubing filled with Signa electrode cream was attached to the outer surface of the trachea. A double lumen recording electrode (FIG. 1B) was placed inside the trachea in contact with the tracheal epithelium. The inner tubing of the recording electrode was used to perfuse onto the surface of the trachea buffer solutions and buffer solutions containing drugs and agents. The outer part of the recording electrode was also filled with Signa electrode cream. The ends of the electrodes not in contact with the trachea were placed in Ringer buffer solution. Electrical contact to calomel half-cells in 3M-KCl solution was achieved by silicone tubing bridges filled with Signa electrode cream. The calomel half-cells were connected to a high impedance digital electrometer (Agilent U1252A). Digital PD values were recorded continuously every 1 second for the duration each study and were filed onto a PC.
as §1, with “Pig” for “FIG. 1 A description of the equipment used to measure electrical potential difference (PD) across the pig trachea ex vivo (FIG. 1A). Pig”, “were obtained from” for “placed on”, “local abattoir or Veterinary University. The lumen of each trachea was cleaned by gentle irrigation with BSS.” for “sloping radiator heated at 37° C.”, “trachea according to the diagram in FIG. 1A. Pig tracheas were placed on a sloping radiator heated at 37° C.” for “trachea.”, “duration of” for “duration”
During each study the amiloride-sensitive, ENaC-dependent component of tracheal PD was determined periodically by perfusion (at 1 ml/min) of buffer solution containing 3×10^−6 M amiloride onto the epithelial surface of the trachea for 5 min, followed by washout for 10 minutes with buffer solution without amiloride. Each response to amiloride was quantified by measuring the area under the curve (AUC) response (mV.min) to amiloride perfusion and washout.

| AUC of amiloride-sensitive ENaC-dependent tracheal PD responses, analysis of variance | down-regulation of amiloride-sensitive ENaC-dependent tracheal PD responses, dose series (doses 3.10^−8 M, 10^−7 M, 3.10^−7 M, 10^−6 M, 3.10^−6 M, and 10^−5 M, all doses) | baseline tracheal PD during perfusion of the agent | responses to 5 min amiloride perfusion during perfusion of the agent | time for tracheal PD to reach plateau depolarisation following initiation of amiloride perfusion (3×10^−6 M amiloride perfused 5 min in BSS at 1 ml/min, mean of 23 tracheas) | time for tracheal PD to return to baseline after initiation of washout (after 5 min perfusion of amiloride, washout with BSS) | responses to 5 min amiloride perfusion on final perfusion with BSS without the agent (washout 60 min with BSS) | Compound |
| --- | --- | --- | --- | --- | --- | --- | --- |
| significant reduction (p<0.0001) | Significant down-regulation | depolarise | decrease |  |  |  | N=C(N)Nc1ccc(C(=O)Oc2ccc3cc(C(=N)N)ccc3c2)cc1 [6-amidino-2-napthyl 4-guanidinobenzoate] |
|  |  |  |  | about 2 min | approximately 5 min |  | N=C(N)NC(=O)c1nc(Cl)c(N)nc1N [amiloride] |

More lines, now with the values behind:

| Compound | AUC of amiloride-sensitive ENaC-dependent tracheal PD responses, analysis of variance | down-regulation of amiloride-sensitive ENaC-dependent tracheal PD responses, dose series (doses 3.10^−8 M, 10^−7 M, 3.10^−7 M, 10^−6 M, 3.10^−6 M, and 10^−5 M, all doses) | baseline tracheal PD during perfusion of the agent | responses to 5 min amiloride perfusion during perfusion of the agent | time for tracheal PD to reach plateau depolarisation following initiation of amiloride perfusion (3×10^−6 M amiloride perfused 5 min in BSS at 1 ml/min, mean of 23 tracheas) | time for tracheal PD to return to baseline after initiation of washout (after 5 min perfusion of amiloride, washout with BSS) | responses to 5 min amiloride perfusion on final perfusion with BSS without the agent (washout 60 min with BSS) |
| --- | --- | --- | --- | --- | --- | --- | --- |
| O=c1ccn([C@@H]2O[C@H](COP(=O)(O)OP(=O)(O)OP(=O)(O)O)[C@@H](O)[C@H]2O)c(=O)[nH]1 [UTP, uridine 5′-triphosphate] |  |  | partially depolarise | decrease |  |  |  |
| O=C([O-])[C@H](O)[C@@H](O)[C@H](O)[C@H](O)CO.[Na+] [hyperosmotic sodium gluconate, sodium gluconate] |  |  | partially depolarise | decrease |  |  |  |
| OC[C@@H](O)[C@@H](O)[C@H](O)[C@H](O)CO [hyperosmotic mannitol, mannitol] | significantly reduced |  |  | decrease |  |  | recover |
